Results taken from patent US20070161704A1, “Pharmaceutical composition useful for treating chronic myeloid leukemia” (COUNCIL OF SCIENTIFIC AND INDUSTRIAL RESEARCH, priority 2002, published 2007).
“Also recorded” adds a separate entry of the source. Blank lines part the entries; values can stand above or below the compound they belong to.

Columns and labels:
[1] = tested on: Bcr-Abl positive CML cell line (K562); assay: Cell count assay, viable cells by trypan blue exclusion; format: cell-based, human
Method: Cell count assays were performed by plating cells in the presence of regular growth medium with or without indicated amount of extract, FIG. 2(a), fraction, FIG. 2(b), purified compound, FIG. 2(e), and its sodium salt, FIG. 2 (d). Each day, viable cells were counted as assessed by exclusion of try pan blue, FIG. 2(e).

[2] = tested on: normal human peripheral blood mononuclear cells (HPBMC); assay: Cytokine production by HPBMC (ELISA); format: cell-based; conditions: for Concentration of Cytokines: IFN-γ / Concentration of Cytokines: IL-2 / Concentration of Cytokines: IL-6: HPBMC, 18 hrs
Source text: Supernatants were collected and quantitated for IL-2, IFN-γ, IL-6 by commercial ELISA.

[3] = tested on: Bcr-Abl negative CML patients PBMC; assay: Viability of CML patients' PBMC; format: cell-based, human; conditions: 67.5 nmole/10^5 cells, FIG. 2e; listed as NaChl
Method: (§1) FIG. 2. […] The flow diagram of purification is shown. […] Cell count assays were performed by plating cells in the presence of regular growth medium with or without indicated amount of extract, FIG. 2(a), fraction, FIG. 2(b), purified compound, FIG. […], and its sodium salt, FIG. 2 (d). Each day, viable cells were counted as assessed by exclusion of try pan blue, FIG. […]. Viability of PBMC obtained from three Ph^+ CML patients and one Ph^− CML patient after treatment with Na-Chl (67.5 nmole/10^5 cells), FIG. 2(f), Morphological changes of K562 cells after treatment with NaChl (67.5 nmole/10^5 cells) for 6 h (phase contrast micrographs, ×400).
(§2) Culture of Bcr-Abl positive CML cell line (K562), peripheral blood cells of CML patients, Bcr-Abl-negative ALL cell line (Molt-4) and peripheral blood cells of CML patients. Cell count assays were performed by plating cells in the presence of regular growth medium with or without indicated amount of extract, fraction, purified compound and its sodium salt. Each day, viable cells were counted as assessed by exclusion of trypan blue.

[4] = tested on: Philadelphia chromosome (Bcr-Abl) positive CML patients PBMC; assay: Viability of CML patients' PBMC; format: cell-based, human; conditions: 67.5 nmole/10^5 cells, FIG. 2e; listed as NaChl
Method: as §1, §2

[5] = tested on: K562 cells; assay: Morphology analysis by phase contrast microscopy; format: cell-based, human; conditions: 67.5 nmole/10^5 cells, 6 h, FIG. 2f
Method: as §1
Morphology analysis of Bcr-Abl positive CML cell line K562 by phase contrast microscopy. Cells were left untreated (NT) or treated with NaChl (Nachl; 67.5 nmole/10^5 cells) and viewed under phase contrast microscope (magnification ×400).

[6] = tested on: Molt-4 cells; assay: Apoptosis by flow cytometry (annexin V-FITC/PI); format: cell-based; conditions: 67.5 nmole/10^5 cells, 6 h, FIG. 3a
Method: (§3) FIG. 3(a). Cells were left untreated (NT) or incubated with NaChl (67.5 nmole/10^5 cells) for 6 h and processed for flow cytometry after staining with annexin V-FITC and PI. Viable cells are in the lower left quadrant. Apoptotic cells stained by annexin V are in the lower right quadrant. Late stage apoptotic cells stained by both annexin V and PI are in the upper right quadrant.
(§4) Measurement of apoptosis by flow cytometry. Cells were left untreated or treated with NaChl (67.5 nmole/10^5 cells) for 6 h. After washing, cells were stained with fluorescein isothyocyanate (FITC) conjugated Annexin V and propidium iodide (PI) and analysed in a flow cytometer (FACS Calibur, Beckton Dickinson, USA).

[7] = tested on: K562 cells; assay: Apoptosis by flow cytometry (annexin V-FITC/PI); format: cell-based, human; conditions: 67.5 nmole/10^5 cells, 6 h, FIG. 3a
Method: as §3, §4

[8] = tested on: PBMC of Bcr-Abl negative CML patients; assay: Apoptosis by flow cytometry (annexin V-FITC/PI); format: cell-based, human; conditions: 67.5 nmole/10^5 cells, 6 h, FIG. 3a
Method: as §3, §4

[9] = tested on: PBMC of Bcr-Abl positive CML patients; assay: Apoptosis by flow cytometry (annexin V-FITC/PI); format: cell-based, human; conditions: 67.5 nmole/10^5 cells, 6 h, FIG. 3a
Method: as §3, §4

[10] = tested on: normal PBMC; assay: Apoptosis by flow cytometry (annexin V-FITC/PI); format: cell-based, human; conditions: 67.5 nmole/10^5 cells, 6 h, FIG. 3a
Method: as §3, §4

[11] = tested on: K562 cells; assay: DNA cell cycle analysis (PI staining); format: cell-based, human; conditions: 1 or 2 days culture, FIG. 3b
Method: (§5) FIG. 3(b). Treatment with NaChl results in early cell cycle arrest followed by apoptosis in Ph^+ cells. Cells were cultured in the presence or absence of NaChl. After 1 or 2 days in culture, cells were collected, permeabilized, and stained with PI for DNA content analysis. Gates were set to assess the percentages of dead (<2n DNA, M1). G0/G1 (2n DNA, M2), and S+G2+M (>2n DNA, M3) cells.
(§6) DNA cell cycle analysis. Cells were cultured with NaChl as described in example 5. After 1 or 2 days culture, cells were collected, permeabilized and stained with PI for DNA cell cycle analysis.

[12] = tested on: PBMC of Bcr-Abl positive CML patients; assay: DNA cell cycle analysis (PI staining); format: cell-based, human; conditions: 1 or 2 days culture, FIG. 3b
Method: as §5, §6

[13] = tested on: K562 cells; assay: Confocal microscopy, Annexin V staining; format: cell-based, human; conditions: K562, FIG. 3c
Method: (§7) FIG. 3(e). Fluorescence images of K562 and Molt-4 cells after treatment with NaChl followed by staining with annexin V-Allexa™ staining with annex in V are shown in left panels and bright filed phase contrast views are shown in right panels.
(§8) Confocal microscopy. K562 and Molt-4 cells were treated with NaChl followed by staining with Annexin-V -Allexa™ as described in example 5, and allowed to adhere onto poly-L-lysine-coated coverslips for 10 min. Representative fields of cells were analysed with a Leica TCS SP2 confocal laser scanning microscope (Heidelberg, Germany).

[14] = tested on: Molt-4 cells; assay: Confocal microscopy, Annexin V staining; format: cell-based; conditions: Molt-4, FIG. 3c
Method: as §7, §8

[15] = tested on: K562 cells; assay: Immunoblot detection of caspase 3 activation; format: cell-based, human; conditions: 24 h, FIG. 3d
Method: (§9) FIG. 3(d). Treatment with NaChl leads to activation of procaspase-3 in Ph+ cells. Cells were left untreated or treated with NaChl (T) for 24 h. Cells were harvested, lysed, equivalent amount of lysates were separated by SDS-PAGE and electrotransferred. The filters were probed with anti-caspase-3 that recognize both procaspase3 (32 Kda, upper band) and caspase-3 cleavage product (17 Kda, lower band).
(§10) Immunoblot assay. Cells were harvested, lysed, equivalent amount of lysates were separated by SDS-PAGE and electro-transferred. The filters were probed with anti-caspase-3 antibody (B.D. Pharmingen), anti-c-Abl antibody or anti-phospho-c-Abl antibody (Cell Signaling Technology).

[16] = tested on: PBMC of Bcr-Abl (Ph) positive CML patients; assay: Immunoblot detection of caspase 3 activation; format: cell-based, human; conditions: 24 h, FIG. 3d
Method: as §9, §10

[17] = tested on: PBMC of Bcr-Abl negative CML patients; assay: Immunoblot detection of caspase 3 activation; format: cell-based, human; conditions: 24 h, FIG. 3d
Method: as §9, §10

[18] = tested on: PBMC of normal donors; assay: Immunoblot detection of caspase 3 activation; format: cell-based, human; conditions: 24 h, FIG. 3d
Method: as §9, §10

[19] = tested on: Molt-4 cells; assay: Immunoblot detection of caspase 3 activation; format: cell-based; conditions: 24 h, FIG. 3d
Method: as §9, §10

[20] = target: T1, Bcr-Abl protein tyrosine kinase (Homo sapiens, UniProt P00519); assay: Abl phosphorylation status by flow cytometry and immunoblot; format: cell-based; conditions: 3 h, anti-phospho-c-Abl (Tyr245), FIG. 4a, 4b
T1 construct: triggering apoptosis of Bcr-Abl expressing CML cell line K562; BCR N-terminal portion (natural fusion partner, P11274); endogenous in cells; host or cells: Ph+ cells: K562 and PBMC of Bcr-Abl positive CML patients; the other entry of the earlier key: BCR (P11274, Breakpoint cluster region protein)
T1 sequence (P00519 28-1130 limits assumed): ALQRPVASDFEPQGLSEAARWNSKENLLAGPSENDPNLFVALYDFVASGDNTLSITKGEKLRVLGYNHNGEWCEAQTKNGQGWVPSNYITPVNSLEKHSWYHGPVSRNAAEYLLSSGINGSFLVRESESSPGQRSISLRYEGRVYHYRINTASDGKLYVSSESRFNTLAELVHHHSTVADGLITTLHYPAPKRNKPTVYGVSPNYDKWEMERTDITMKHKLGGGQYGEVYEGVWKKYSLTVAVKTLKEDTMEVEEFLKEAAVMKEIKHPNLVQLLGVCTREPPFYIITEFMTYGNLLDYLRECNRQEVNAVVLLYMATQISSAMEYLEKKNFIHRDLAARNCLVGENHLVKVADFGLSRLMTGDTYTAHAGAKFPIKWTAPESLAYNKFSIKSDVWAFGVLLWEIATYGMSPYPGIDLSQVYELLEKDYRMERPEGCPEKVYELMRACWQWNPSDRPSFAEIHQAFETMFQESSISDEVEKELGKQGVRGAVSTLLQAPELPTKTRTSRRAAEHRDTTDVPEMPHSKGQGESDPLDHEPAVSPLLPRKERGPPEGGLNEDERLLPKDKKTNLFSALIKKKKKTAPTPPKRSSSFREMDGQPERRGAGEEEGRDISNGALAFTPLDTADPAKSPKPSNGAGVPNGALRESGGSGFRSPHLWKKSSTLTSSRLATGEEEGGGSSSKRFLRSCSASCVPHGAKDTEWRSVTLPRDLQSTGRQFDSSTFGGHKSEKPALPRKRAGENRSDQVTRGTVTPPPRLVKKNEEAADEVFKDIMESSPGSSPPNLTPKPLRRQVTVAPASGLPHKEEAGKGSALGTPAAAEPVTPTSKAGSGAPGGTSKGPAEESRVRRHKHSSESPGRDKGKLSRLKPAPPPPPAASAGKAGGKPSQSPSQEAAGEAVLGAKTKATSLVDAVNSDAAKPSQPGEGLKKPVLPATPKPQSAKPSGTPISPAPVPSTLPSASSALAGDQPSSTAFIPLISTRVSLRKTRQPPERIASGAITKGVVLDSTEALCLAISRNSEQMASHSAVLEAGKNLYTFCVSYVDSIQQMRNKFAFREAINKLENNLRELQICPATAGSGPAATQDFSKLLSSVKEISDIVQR
Method: FIG. 4(a) Flow cytometric determination of Abl phosphorylation status. Cells were left untreated (NT) or incubated with NaChl (T) for 3 h, permeabilized and stained with rabbit anti-phospho-c-Abl (Tyr245) antibody. Dotted line, staining with normal rabbit IgG; solid line, staining with immune IgG.
(§11) FIG. 4(b) Immuno-blot-based determination of Abl phosphorylation status. Cells were harvested, lysed, equivalent amount Iysates were separated by SDS-P AGE and electrotransferred. The filters were probed with anti-phospho-c-Abl (Tyr 245) (upper panels) or anti-c-Abl antibody (middle panels).
as §10
(§12) Flow cytometric determination of Abl phosphorylation or Abl expression status. Cells were permeabelysed, stained with rabbit anti-phospho-c-Abl antibody, anti-c-Abl antibody or control rabbit antibody and analysed in a flow cytometer.

[21] = tested on: Abl protein; assay: Abl expression status by flow cytometry and immunoblot; format: cell-based, human; conditions: anti-c-Abl antibody, FIG. 4b, 4c
Source text: as §11
FIG. 4(c) Flow cytometric determination of Abl expression status. Cells were permeabilized and stained with rabbit anti-c-Abl antibody. Dotted line, staining with normal rabbit IgG; solid line, staining with immune IgG.
as §10, §12

[22] = tested on: K562 xenografts; assay: In vivo studies on K562 xenografts in nude mice; set-up: species or system mouse; conditions: 25-150 mg/kg intraperitoneally once a day for 10 days, FIG. 5
Method: FIG. 5. K562 cells embedded in Matrigel were staged in nude mice until tumors reached 200-300 mm^3. PBS (●), NaChl (25 mg/kg, □; 100 mg/kg, A; 150 mg/kg, ∘) were administered intraperitoneally once a day for ten days.
In vivo studies on K562 xenografts: K562 cells were suspended to 5×10^7 cells/ml in matrigel (BD Biosciences, Mountain View, Calif.; 1 volume of cells with 1 volume of cold Matrigel). Nude female mice 6 to 7 weeks of age were given injections of 0.2 ml of this suspension. Animals were left untreated until K562 xenografts reached 200-300 mm^3. […] Phosphate buffered saline (PBS, 0.2 ml per mouse) was used as a control. Animal studies were conducted under an approved institutional Animal Care and Use Committee protocol.

[23] = tested on: STI571-sensitive K562 cells; assay: Proliferation by [3H]thymidine uptake; format: cell-based, human; conditions: 48 h, graded concentrations, FIG. 6
Method: (§13) FIG. 6. […] K562 and K562-R cells were incubated with graded concentrations of ST1571 (A) or NaChl (B) for 48 h, proliferation was then determined by [^3H] thymidine uptake.
(§14) K562 and STI571-resistant K562 cells (K562-R) were incubated with graded concentrations of ST1571 or NaChl for 48 hours, proliferation was then determined by [^3H]thymidine uptake.

[24] = tested on: STI571-resistant K562 cells (K562-R); assay: Proliferation by [3H]thymidine uptake; format: cell-based, human; conditions: 48 h, graded concentrations, FIG. 6
Method: as §13
K562 cells were incubated with increasing concentrations of STI571 (received as gift in the form of Gleevec from a CML patient receiving Gleevec therapy), and surviving cells were collected by centrifugation and treated with 2-fold higher concentrations of STI571 (Donato, N. J. et al. Blood, 101:690-698, 2003).
as §14

[25] = PHA 2.5 μg/ml + LPS 1.0 μg/ml + Chl 25 μg/ml

- IC50 ([1]; Homo sapiens, in vitro, K562 cells, FIGS. 2C & 2D): 27 µM
Structure (SMILES): O=C(/C=C/c1ccc(O)c(O)c1)O[C@@H]1C[C@](O)(C(=O)O)C[C@@H](O)[C@H]1O [chlorogenic acid]
- killing of K562 cells ([1]; cell count, FIG. 2a-2c): higher killing activity of K562 cells compare to crude extract or fraction E
- Concentration of Cytokines: IFN-γ ([2]; Chl 25 μg/ml alone): 19.4 pg/mL
- Concentration of Cytokines: IL-2 ([2]; Chl 25 μg/ml alone): 6.8 pg/mL
- Concentration of Cytokines: IL-6 ([2]; Chl 25 μg/ml alone): 781.9 pg/mL
- Concentration of Cytokines: IFN-γ [2, 25]: 13.8 pg/mL
- Concentration of Cytokines: IL-2 [2, 25]: 2.5 pg/mL
- Concentration of Cytokines: IL-6 [2, 25]: 1899.0 pg/mL
- production of IL-2, IFN-γ, and IL-6 by HPBMC after stimulation with PHA and LPS ([2]; PHA and LPS stimulation): significantly inhibited
- spontaneous production of IL-2, IFN-γ, and IL-6 by HPBMC ([2]; no stimulation): inhibits

- phosphorylation of Bcr-Abl protein tyrosine kinase [20]: inhibits phosphorilation
Structure (SMILES): O=C(/C=C/c1ccc(O)c(O)c1)O[C@@H]1C[C@](O)(C(=O)[O-])C[C@@H](O)[C@H]1O.[Na+] [sodium chlorogenate]
- effect on Bcr-Abl negative CML patients PBMC [3]: no effect; also recorded: without any effects
- killing of Bcr-Abl positive CML patients PBMC [4]: active in killing; also recorded: destroys
- morphological changes in K562 cells [5]: induces morphological changes (nuclear condensation)
- apoptosis [6]: did not induce apoptosis
- apoptosis [7]: increase in apoptosis
- apoptosis [8]: did not induce apoptosis
- apoptosis [9]: increase in apoptosis
- apoptosis [10]: remain virtually unaffected
- apoptosis ([10]; listed as NaChl): did not induce apoptosis
- DNA cell cycle [11]: induces cell cycle arrest followed by breakdown of DNA
- DNA cell cycle [12]: induces cell cycle arrest followed by breakdown of DNA
- Annexin V staining (confocal) [13]: positive Annexin V staining
- Annexin V staining (confocal) [14]: not in Molt-4 cells
- apoptosis by caspase 3 activation [15]: Apoptosis in K562 cells
- apoptosis by caspase 3 activation [16]: Apoptosis
- apoptosis by caspase 3 activation [17]: not
- apoptosis by caspase 3 activation [18]: not
- apoptosis by caspase 3 activation [19]: not in Molt-4 cells
- expression of Abl protein level [21]: without affecting the expression
- tumor growth of K562 xenografts [22]: reduced the tumor growth in a dose dependent manner
- apoptosis/proliferation of STI571-sensitive K562 cells [23]: induces apoptosis
- apoptosis/proliferation of STI571-resistant K562 cells [24]: induces apoptosis
- production of interferon gamma ([2]; statement referring to Table II): significantly inhibits
